Results as given in patent US20080227809A1, “Arylalkylamine Vanadium (V) Salts for the Treatment and/or Prevention of Diabetes Mellitus” (GENMEDICA THERAPEUTICS SL, priority 2004, published 2008).

Legend:
[1] = test system: isolated rat adipocytes; experiment: glucose transport (2-deoxyglucose uptake) in isolated rat adipocytes; assay type: cell-based; conditions: for stimulation of glucose transport at low concentration compared with A and B vanadium salts: 10 μM; for stimulation of glucose transport at low concentration compared with A and B vanadium salts / maximal stimulatory effect on glucose transport, compounds compared: vanadium salts; for maximal stimulatory effect on glucose transport, compounds compared: FIG. 6B; for stimulatory effect on glucose transport in the presence of semicarbazide: 1 mM semicarbazide (SSAO inhibitor)
Procedure: In order to determine whether salts formed by vanadate and benzylamine could produce an insulin mimetic effect, the effect of increasing concentrations of hexaquis(benzylammonium) decavanadate on glucose transport activity in isolated rat adipocytes was tested. Hexaquis(benzylammonium) decavanadate induced the stimulation of glucose transport which was perceptible from concentrations of 0.5 μM, with a maximal effect observed 2.5 μM and the semimaximal effect above 1 μM. […] The maximum effect provoked by incubation with hexaquis(benzylammonium) decavanadate was greater than that produced by the presence of benzylamine and vanadate in combination (FIG. 1). […] In similar assays, the activity of hexaquis(benzylammonium) decavanadate, pentaquis(benzylammonium) decavanadate and tetraquis(benzylammonium) decavanadate on glucose transport activity in isolated rat adipocytes were analyzed.
To determine the possible insulin mimetic effect of certain vanadium arylalkylamines, the capacity of these compounds to enhance glucose transport in isolated rat adipocytes was tested. Adipose cells from Wistar rats were incubated for 45 minutes in basal conditions (Basal) or in the presence of 100 nM insulin (Ins), and different concentrations of. hexaquis(benzylammonium) decavanadate (B6V10) in the absence or in the presence of 1 mM semicarbazide (SCZ). Subsequently, 2-DG transport was measured over a 5 min. interval.
The effects of the three tested compounds (B6V10, B5V10 and B4V10) were compared. Adipose cells from Wistar rats were incubated for 45 minutes in basal conditions (Basal) or in the presence of 100 nM insulin (Ins), and different concentrations of. decavanadate (V10), hexaquis(benzylammonium) decavanadate (B6V10), pentaquis(benzylammonium) decavanadate (B5V10) or tetraquis(benzylammonium) decavanadate (B4V10) in the absence or in the presence of 1 mM semicarbazide (SCZ). 2-DG transport was measured over 5 min. intervals. […] The stimulation of all three compounds on glucose transport was blocked in the presence of semicarbazide.
In additional experiments, compounds shown in FIG. 6A (named 2-(4-fluoro-phenyl)-ethylamine (compound A), 3-phenyl-propylamine (compound B), 4-fluoro-benzylamine (compound C) and 4-phenyl-butylamine (compound D)) were assessed using the experimental methods set forth above for the capacity to stimulate 2-DG uptake in isolated rat adipocytes. Adipose cells from Wistar rats were incubated for 45 minutes in basal conditions (Basal) or in the presence of 100 nM insulin (Ins), and different concentrations of vanadium salts of 2-(4-fluoro-phenyl)-ethylamine (compound A), 3-phenyl-propylamine (compound B), 4-fluoro-benzylamine (compound C) and 4-phenyl-butylamine (compound D). 2-DG transport was measured over 5 min.
(§1) The effects of incubation with semicarbazide or phosphatidylinositol 3-kinase inhibitors were also investigated. Adipose cells were incubated with B6V10 (25 μM, 45 min) in the absence or presence of wortmannin (2 μM, 45 min), LY294002 (10 μM, 45 min) or semicarbazide (1 mM, 45 min) and thereafter 2-deoxyglucose uptake was determined during 5 min. Activation of protein kinase B phosphorylation induced by B6V10 was blocked by semicarbazide and it was not observed by decavanadate. In addition, phosphatidylinositol 3-kinase inhibitors wortmannin and LY294002 blocked B6V10-induced glucose transport (FIG. 7E).

[2] = test system: streptozotocin-induced diabetic rats; experiment: chronic subcutaneous (osmotic minipump) treatment, glycemia of streptozotocin (45 mg/kg) diabetic rats; assay type: in vivo, rat; conditions: 2.5 μmol/kg/day subcutaneous by osmotic minipumps, about two weeks
Procedure: Insulin concentrations were determined before and after treatment.
The effect of chronic administration of hexaquis(benzylammonium) decavanadate on glycemia from diabetic rats was determined. Thus, diabetes was induced in rats by intravenous administration of streptozotocin, which destroys the β-pancreatic cells that produce insulin.
(§2) Chronic in vivo efficacy of B6V10 was evaluated in streptozotocin-induced diabetic rats and in db/db mice. Streptozotocin-induced (45 mg/kg) diabetic rats were subcutaneously treated with hexaquis(benzylammonium) decavanadate (2.5 μmol/kg) (B6V10, solid squares, FIG. 8A) or with decavanadate (2.5 μmol/kg) (V10, open circles, FIG. 8A) delivered subcutaneously by osmotic minipumps implanted in the dorsal region. Diabetic rats were also sham-operated (untreated, solid diamonds, FIG. 8A). […] These experiments were repeated using an oral administration protocol. Streptozotocin-induced (45 mg/kg) diabetic rats were orally treated with hexaquis(benzylammonium) decavanadate (5 μmol/kg from day 0 to day 7 and 10 μmol/kg/day from day 7 to day 17) (B6V10, solid squares, FIG. 8B) or received decavanadate (10 μmol/kg) (V10, open circles, FIG. 8B). Nondiabetic rats were also untreated (solid triangles, FIG. 8B).

[3] = test system: protein kinase B; experiment: protein kinase B phosphorylation in isolated rat adipocytes; assay type: cell-based; conditions: 25 μM
Procedure: Isolated fat cells were disrupted for total membrane preparation by hypo-osmotic lysis in a 20 mM HES buffer and an antiprotease and antiphosphatase cocktail as reported by Abella et al. (2003, Diabetes 52: 1004-1013). Protein concentrations were determined by the Bradford method (Bradford, 1976, Anal. Biochem. 72: 248-254) with gamma-globulin as protein concentration standard. Immunoprecipitation and immunoblot assays were performed as previously described by Abella et al. (2004, Id.) with the use of a monoclonal antiphosphotyrosine antibody for the immunoprecipitation and an anti-insulin receptor antibody for immunobloting, respectively. SDS-polyacrylamide gel electrophoresis was performed on membrane proteins following conventional procedures. Proteins were transferred to Immobilon and immunoblotting was performed as reported by Castello et al. (1994, J. Biol. Chem. 269: 5905-5912).
The mechanism of action of B6V10 was investigated in isolated rat adipocytes. Adipose cells from Wistar rats were incubated for different times in the presence of 25 μM hexaquis(benzylammonium) decavanadate (B6V10). Cells were also incubated in the presence of insulin (100 nM, 45 min), decavanadate (25 μM, 45 min) or semicarbazide (1 mM, 45 min). Subsequently, 2-deoxyglucose uptake (results shown in FIG. 7A), tyrosine phosphorylation of insulin receptor (FIG. 7B), phospho-Thr^308-protein kinase B (FIG. 7C) and phospho-Ser^473-protein kinase B (FIG. 7D) was measured. […] The phosphorylation of protein kinase B induced by B6V10 was parallel to activation of glucose transport (FIGS. 7C and 7D).
as §1

[4] = test system: streptozotocin-induced diabetic rats; experiment: chronic oral treatment, glycemia of streptozotocin (45 mg/kg) diabetic rats; assay type: in vivo, rat; conditions: for effect on glycemia: daily oral administration, 17 days
Procedure: The effect of the oral administration of hexaquis(benzylammonium) decavanadate on glycemia from diabetic rats was also studied. Diabetes was induced in rats by intravenous administration of streptozotocin, and subsequently, a hexaquis(benzylammonium) decavanadate or sodium decavanadate unique dose was administered to the rats. […] After seven days of treatment, the dose was increased at 10 μmol/kg/day which was maintained for an additional ten days. […] Thus, glycemia in sodium decavanadate treated rats was approximately 450 mg/dl and glycemia of hexaquis(benzylammonium) decavanadate treated rats was approximately 250 mg/dl.
as §2

[5] = test system: streptozotocin-induced diabetic rats with undetectable circulating insulin; conditions: 2.5 μmol/kg subcutaneous by osmotic minipumps, streptozotocin 100 mg/kg
Procedure: Male Wistar rats weighting 180-220 g were purchased from Harlan (Interfauna Ibèrica S.A., Spain). Diabetes was induced by a single intraperitoneal injection of a freshly prepared solution of streptozotocin (in some studies the dose was 45 mg/kg body weight and in some others 100 mg/kg body weight dissolved in 50 mM citrate buffer, pH 4.5). Only diabetic animals with glycemia above 300 mg/dl were used. The animals were housed in animal quarters at 22° C. with a 12 h light/12 h dark cycle and were fed ad libitum. All procedures used were approved by the animal ethical committee of the University of Barcelona, Spain.
Osmotic minipumps delivering B6V10 (2.5 μmol/kg body wt/day) or decavanadate (2.5 μmol/kg body wt/day) were implanted subcutaneously in diabetic rats anaesthetised by ketamine hydrochloride (95 mg/kg) and xylasine (10 mg/kg). […] Glycemia was measured on arterio-venous blood collected from the tail vessels at 09:00 am for two weeks, before the administration of vanadate. Insulin concentrations were determined before and after treatment. In another set of experiments, B6V10 was orally administered at a single dose of 5 μmol/kg/day during the first week and 10 μmol/kg/day during 2 additional weeks by gastric gavage. A control group received the corresponding decavanadate salt in the absence of benzylamine. At the end of the treatment, animals were sacrificed and the liver, fat pad, heart and lung were kept at −80° C. and the plasma at −20° C. until their use for in vitro analysis.
In glucose tolerance tests and in chronic treatments, circulating glucose concentrations were determined by a rapid glucose analyser (Accutrend® Sensor Comfort, Roche, Basel. Switzerland). Plasma insulin (IRI) concentration was determined by ELISA method using a kit obtained from Crystal Chem. Inc. (Downers Grove, Ill.).
To this end, rats were made diabetic by the injection of a large dose of streptozotocin (100 mg/kg) that eliminates β-pancreatic insulin content.

[6] = isolated rat adipocytes, 45 min incubation

NCCc1ccc(F)cc1 [compound A, 2-(4-fluoro-phenyl)-ethylamine]
stimulation of glucose transport [1, 6]: markedly stimulated

NCCCc1ccccc1 [compound B, 3-phenyl-propylamine]
stimulation of glucose transport [1, 6]: markedly stimulated

NCc1ccc(F)cc1 [compound C, 4-fluoro-benzylamine]
stimulation of glucose transport at low concentration compared with A and B vanadium salts [1]: higher | stimulation of glucose transport [1, 6]: markedly stimulated | maximal stimulatory effect on glucose transport, compounds compared [1]: similar

NCCCCc1ccccc1 [compound D, 4-phenyl-butylamine]
stimulation of glucose transport at low concentration compared with A and B vanadium salts [1]: higher | stimulation of glucose transport [1, 6]: markedly stimulated | maximal stimulatory effect on glucose transport, compounds compared [1]: similar

pentaquis(benzylammonium) decavanadate [Example B5V10]
stimulatory effect on glucose transport in the presence of semicarbazide [1]: blocked | stimulatory effect on glucose transport in the presence of semicarbazide ([1]; listed as pentaquis(benzylammonium) decavanadate): inhibited | stimulation of glucose transport [1, 6]: pronounced stimulation

sodium decavanadate [reference compound]
effect on glycemia [2]: did not modify substantially its glycemia | effect on glycemia ([2]; listed as V10): did not alter glycemia | protein kinase B phosphorylation [3]: not observed | effect on glycemia [4]: not affected substantially | effect on glycemia ([4]; listed as V10): did not alter glycemia | glycemia ([4]; oral, after dosage increase to 10 μmol/kg/day): approximately 450 mg/dl | stimulation of glucose transport ([1]; alone at 5 to 50 μM): did not stimulate glucose transport | effect on glycemia [5]: did not show any change in circulating glucose

tetraquis(benzylammonium) decavanadate [Example B4V10]
stimulatory effect on glucose transport in the presence of semicarbazide [1]: blocked | stimulatory effect on glucose transport in the presence of semicarbazide ([1]; listed as tetraquis(benzylammonium) decavanadate): inhibited | stimulation of glucose transport [1, 6]: pronounced stimulation
